Experimental data reported in patent US20260200897A1, “4-((5-(3-(4-(PYRIDIN-2-YL)CYCLOPENTYL)-1H-PYRAZOL-3-YL)AMINO)-BENZENESULFONAMIDE DERIVATIVES AND SIMILAR COMPOUNDS AS CDK INHIBITORS FOR THE TREATMENT OF CANCER” (BeOne Medicines I GmbH, priority 2023, published 2026).

Key:
CDK1/Cyclin B1 = CDK1/Cyclin B1 (Homo sapiens, UniProt P06493); assay: CDK1/Cyclin B1 TR-FRET biochemical assay, 1 mM ATP; conditions: 0.15 μM Rb (Ser780)-biotin substrate, 90 min reaction, Table 2
Protocol: (§1) Compounds disclosed herein were tested for inhibition of CDK2/Cyclin E1 or CDK1/Cyclin B kinase in an assay based on the time-resolved fluorescence-resonance energy transfer (TR-FRET) methodology. The assay was carried out in 384-well low volume black plates in a reaction mixture containing CDK2/Cyclin E1 or CDK1/Cyclin B1, 1 mM ATP for CDK2/Cyclin E1 and CDK1/Cyclin B1, 0.15 μM Rb (Ser780)-biotin substrate and 0-10 μM compound in buffer containing 50 mM HEPES pH7.0, 0.02% NaN3, 0.01% BSA, 0.1 mM Orthovanadate, 50 mM MgCl2, 1 mM DTT and 0.005% Tween-20. The kinase was incubated with compound for 60 minutes at room temperature and the reaction was initiated by the addition of ATP and Rb (Ser780)-biotin substrate. After reaction at room temperature for 90 minutes, an equal volume of stop/detection solution was added according to the manufacture's instruction (Cisbio Bioassays). The stop/detection solution contained Streptavidin-XL665 and Anti-pRb (Ser780) mAb-Eu Cryptate in Detection buffer (Cisbio Bioassays). Plates were incubated at room temperature for 60 minutes, and the TR-FRET signals (ex337 nm, em665 nm/620 nm) were recorded on a PHERAstar FSX plate reader (BMG Labtech). The inhibition percentage of CDK2/Cyclin E1 or CDK1/Cyclin B1 kinase activity in presence of increasing concentrations of compounds was calculated based on the ratio of fluorescence at 665 nm to that at 620 nm. The IC50 for each compound was derived from fitting the data to the four-parameter logistic equation by Dotmatics.

CDK2/Cyclin E1 = CDK2/Cyclin E1 (Homo sapiens, UniProt P24941); assay: CDK2/Cyclin E1 TR-FRET biochemical assay, 1 mM ATP; conditions: 0.15 μM Rb (Ser780)-biotin substrate, 90 min reaction, Table 2
Protocol: as §1

Chain of CDK1/Cyclin B1 (P06493 whole entry): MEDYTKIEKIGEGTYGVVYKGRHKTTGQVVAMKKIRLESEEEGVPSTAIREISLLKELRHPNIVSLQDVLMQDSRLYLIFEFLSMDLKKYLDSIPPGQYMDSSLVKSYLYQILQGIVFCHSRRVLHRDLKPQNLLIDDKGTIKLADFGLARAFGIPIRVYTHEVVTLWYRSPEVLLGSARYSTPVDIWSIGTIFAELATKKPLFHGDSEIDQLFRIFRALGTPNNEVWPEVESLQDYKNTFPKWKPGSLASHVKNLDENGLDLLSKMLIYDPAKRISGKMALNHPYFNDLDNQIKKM
Chain of CDK1/Cyclin B1 (P14635 whole entry partner): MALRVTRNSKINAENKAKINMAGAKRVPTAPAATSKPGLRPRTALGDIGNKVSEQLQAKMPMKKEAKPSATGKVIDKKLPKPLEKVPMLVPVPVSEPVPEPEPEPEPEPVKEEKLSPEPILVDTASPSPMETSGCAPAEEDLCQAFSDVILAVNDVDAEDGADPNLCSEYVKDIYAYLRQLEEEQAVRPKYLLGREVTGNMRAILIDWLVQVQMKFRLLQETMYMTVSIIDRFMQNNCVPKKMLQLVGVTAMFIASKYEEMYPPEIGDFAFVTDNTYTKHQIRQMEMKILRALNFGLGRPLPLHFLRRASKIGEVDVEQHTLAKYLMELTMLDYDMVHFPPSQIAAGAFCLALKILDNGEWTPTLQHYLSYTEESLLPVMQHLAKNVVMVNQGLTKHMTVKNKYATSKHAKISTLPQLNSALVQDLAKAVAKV

| IC50 (CDK1/Cyclin B1) | IC50 (CDK2/Cyclin E1) | SMILES |
| --- | --- | --- |
| > 10000 nM | 189 nM | CC(C)(O)c1cc(C2CCC(c3cc(Nc4ccc5c(c4F)CS(=O)(=O)N5)n[nH]3)C2)n[nH]1 (centres unmarked) [Example 150, 4-fluoro-5-((5-(3-(5-(2-hydroxypropan-2-yl)-1H-pyrazol-3-yl)cyclopentyl)-1H-pyrazol-3-yl)amino)-1,3-dihydrobenzo[c]isothiazole 2,2-dioxide] |
| 1440 nM | 5.4 nM | CC(C)c1cnc(C2CCC(c3cc(Nc4ccc5c(c4F)CN=S5(C)=O)n[nH]3)C2)o1 (centres unmarked) [Example 170] |
| > 10000 nM | 3310 nM | CC(C)(C)c1cn([C@@H]2CC[C@H](c3cc(Nc4ccc5c(c4F)CNS5(=O)=O)n[nH]3)C2)nn1 (relative stereo) [Example 90, cis-5-((5-(3-(4-(tert-butyl)-1H-1,2,3-triazol-1-yl)cyclopentyl)-1H-pyrazol-3-yl)amino)-4-fluoro-2,3-dihydrobenzo[d]isothiazole 1,1-dioxide] |
| > 10000 nM | 369 nM | CC(C)(C)c1cnnc(C2CCC(c3cc(Nc4cc5c(cc4F)S(=O)(=O)NC5)n[nH]3)C2)c1 (centres unmarked) [Example 14, 5-((5-(3-(5-(tert-butyl)pyridazin-3-yl)cyclopentyl)-1H-pyrazol-3-yl)amino)-6-fluoro-2,3-dihydrobenzo[d]isothiazole 1,1-dioxide] |
| 2490 nM | 12 nM | CC(C)c1ccnc(C2CCC(c3cc(Nc4cc5c(cc4F)S(=O)(=O)NC5)n[nH]3)C2)n1 (centres unmarked) [Example 16, 6-fluoro-5-((5-(3-(4-isopropylpyrimidin-2-yl)cyclopentyl)-1H-pyrazol-3-yl)amino)-2,3-dihydrobenzo[d]isothiazole 1,1-dioxide] |
| 2530 nM | 12 nM | CN1c2ccc(Nc3cc([C@@H]4CC[C@H](c5ncc(C(C)(C)C)o5)C4)[nH]n3)cc2CS1(=O)=O [Example 142, 5-((5-((1R,3S)-3-(5-(tert-butyl)oxazol-2-yl)cyclopentyl)-1H-pyrazol-3-yl)amino)-1-methyl-1,3-dihydrobenzo[c]isothiazole 2,2-dioxide] |
| > 10000 nM | 1050 nM | O=S1(=O)NCc2c1ccc(Nc1cc(C3CCC(c4cnc(C5CC5)o4)C3)[nH]n1)c2F (centres unmarked) [Example 106, 5-((5-(3-(2-cyclopropyloxazol-5-yl)cyclopentyl)-1H-pyrazol-3-yl)amino)-4-fluoro-2,3-dihydrobenzo[d]isothiazole 1,1-dioxide] |
| 1060 nM | 3.7 nM | CC(C)(C)c1ccnc(C2CCC(c3cc(Nc4cc5c(cc4F)S(=O)(=O)NC5)n[nH]3)C2)n1 (centres unmarked) [Example 15, 5-((5-(3-(4-(tert-butyl)pyrimidin-2-yl)cyclopentyl)-1H-pyrazol-3-yl)amino)-6-fluoro-2,3-dihydrobenzo[d]isothiazole 1,1-dioxide] |
| 126 nM | 1.7 nM | CC(C)c1ccnc(C2CCC(c3cc(Nc4ccc5c(c4F)CS(=O)(=O)N5)n[nH]3)C2)n1 (centres unmarked) [Example 165, 4-fluoro-5-((5-(3-(4-isopropylpyrimidin-2-yl)cyclopentyl)-1H-pyrazol-3-yl)amino)-1,3-dihydrobenzo[c]isothiazole 2,2-dioxide] |
| > 10000 nM | 1810 nM | CC(C)c1cnc(C2CCC(c3cc(Nc4ccc5c(c4F)CNS5(=O)=O)n[nH]3)C2)o1 (single isomer, unassigned) [Example 109c, 4-fluoro-5-((5-(3-(5-isopropyloxazol-2-yl)cyclopentyl)-1H-pyrazol-3-yl)amino)-2,3-dihydrobenzo[d]isothiazole 1,1-dioxide] |
| > 10000 nM | 79 nM | Cc1nc(C2CCC(c3cc(Nc4ccc(S(N)(=O)=O)cc4F)n[nH]3)C2)oc1C(C)(C)C (centres unmarked) [Example 8, 4-((5-(3-(5-(tert-butyl)-4-methyloxazol-2-yl)cyclopentyl)-1H-pyrazol-3-yl)amino)-3-fluorobenzenesulfonamide] |
| > 10000 nM | 3290 nM | CC(C)(C)n1cc(C2CCC(c3cc(Nc4ccc5c(c4F)CNS5(=O)=O)n[nH]3)C2)cn1 (centres unmarked) [Example 99, 5-((5-(3-(1-(tert-butyl)-1H-pyrazol-4-yl)cyclopentyl)-1H-pyrazol-3-yl)amino)-4-fluoro-2,3-dihydrobenzo[d]isothiazole 1-dioxide] |
| 540 nM | 9.6 nM | Cc1nc(C2CCC(c3cc(Nc4ccc5c(c4F)CS(=O)(=O)N5)n[nH]3)C2)oc1C(C)(C)C (centres unmarked) [Example 154, 5-((5-(3-(5-(tert-butyl)-4-methyloxazol-2-yl)cyclopentyl)-1H-pyrazol-3-yl)amino)-4-fluoro-1,3-dihydrobenzo[c]isothiazole 2,2-dioxide] |
| 848 nM | 7.1 nM | CC(C)(C)c1ccnc(C2CCC(c3cc(Nc4ccc(S(N)(=O)=O)cc4F)n[nH]3)C2)n1 (centres unmarked) [Example 4, 4-((5-(3-(4-(tert-butyl)pyrimidin-2-yl)cyclopentyl)-1H-pyrazol-3-yl)amino)-3-fluorobenzenesulfonamide] |
| > 10000 nM | 314 nM | CC(C)(C)c1nnc([C@@H]2CC[C@H](c3cc(Nc4ccc5c(c4F)CNS5(=O)=O)n[nH]3)C2)o1 (relative stereo) [Example 96, cis-5-((5-(3-(5-(tert-butyl)-1,3,4-oxadiazol-2-yl)cyclopentyl)-1H-pyrazol-3-yl)amino)-4-fluoro-2,3-dihydrobenzo[d]isothiazole 1,1-dioxide] |
| > 10000 nM | 88 nM | CC(C)(C)c1cnc(C2CCC(c3cc(Nc4ccc(S(N)(=O)=O)cc4F)n[nH]3)C2)o1 (single isomer, unassigned) [Example 6b, 4-((5-(3-(5-(tert-butyl)oxazol-2-yl)cyclopentyl)-1H-pyrazol-3-yl)amino)-3-fluorobenzenesulfonamide] |
| > 10000 nM | 1910 nM | CC(C)(C)c1cnc(C2CCC(c3cc(Nc4ccc(S(N)(=O)=O)cc4F)n[nH]3)C2)o1 (single isomer, unassigned) [Example 6c, 4-((5-(3-(5-(tert-butyl)oxazol-2-yl)cyclopentyl)-1H-pyrazol-3-yl)amino)-3-fluorobenzenesulfonamide] |
| 11 nM | 0.5 nM | CC(C)(C)c1ccnnc1O[C@@H]1CC[C@H](c2cc(Nc3ccc4c(c3F)CNS4(=O)=O)n[nH]2)C1 (relative stereo) [Example 37, cis-5-((5-(3-((4-(tert-butyl)pyridazin-3-yl)oxy)cyclopentyl)-1H-pyrazol-3-yl)amino)-4-fluoro-2,3-dihydrobenzo[d]isothiazole 1,1-dioxide] |
| > 10000 nM | 5680 nM | Cc1cc(C(C)(C)C)cc(C2CCC(c3cc(Nc4ccc(S(N)(=O)=O)cc4F)n[nH]3)C2)n1 (centres unmarked) [Example 2, 4-((5-(3-(4-(tert-butyl)-6-methylpyridin-2-yl)cyclopentyl)-1H-pyrazol-3-yl)amino)-3-fluorobenzenesulfonamide] |
| 348 nM | 2 nM | CC(C)(C)c1cnc(C2CCC(c3cc(Nc4ccc5c(c4F)CN=S5(C)=O)n[nH]3)C2)o1 (centres unmarked) [Example 171, 5-((5-(3-(5-(tert-butyl)oxazol-2-yl)cyclopentyl)-1H-pyrazol-3-yl)amino)-4-fluoro-1-methyl-3H-1λ^4-benzo[d]isothiazole 1-oxide] |
| 7400 nM | 78 nM | CC(C)(C)c1coc(C2CCC(c3cc(Nc4ccc5c(c4F)CS(=O)(=O)N5)n[nH]3)C2)n1 (centres unmarked) [Example 148, 5-((5-(3-(4-(tert-butyl)oxazol-2-yl)cyclopentyl)-1H-pyrazol-3-yl)amino)-4-fluoro-1,3-dihydrobenzo[c]isothiazole 2,2-dioxide] |
| 2090 nM | 3.9 nM | CC(C)(C)c1cnc(C2CCC(c3cc(Nc4cc5c(cc4F)S(=O)(=O)NC5)n[nH]3)C2)o1 (single isomer, unassigned) [Example 17a, 5-((5-(3-(5-(tert-butyl)oxazol-2-yl)cyclopentyl)-1H-pyrazol-3-yl)amino)-6-fluoro-2,3-dihydrobenzo[d]isothiazole 1,1-dioxide] |
| > 10000 nM | 173 nM | CC(C)(C)c1cc(C2CCC(c3cc(Nc4ccc5c(c4F)CNS5(=O)=O)n[nH]3)C2)[nH]n1 (centres unmarked) [Example 100, 5-((5-(3-(3-(tert-butyl)-1H-pyrazol-5-yl)cyclopentyl)-1H-pyrazol-3-yl)amino)-4-fluoro-2,3-dihydrobenzo[d]isothiazole 1,1-dioxide] |
| 142 nM | 1.5 nM | CC(C)(C)c1ccnc([C@@H]2CC[C@H](c3cc(Nc4ccc5c(c4F)CNS5(=O)=O)n[nH]3)C2)n1 (relative stereo) [Example 127, cis-5-((5-(3-(4-(tert-butyl)pyrimidin-2-yl)cyclopentyl)-1H-pyrazol-3-yl)amino)-4-fluoro-2,3-dihydrobenzo[d]isothiazole 1,1-dioxide] |
| > 10000 nM | 2020 nM | CC(C)(C)c1ccc(C2CCC(c3cc(Nc4ccc5c(c4F)CS(=O)(=O)N5)n[nH]3)C2)nc1 (centres unmarked) [Example 156, 5-((5-(3-(5-(tert-butyl)pyridin-2-yl)cyclopentyl)-1H-pyrazol-3-yl)amino)-4-fluoro-1,3-dihydrobenzo[c]isothiazole 2,2-dioxide] |
